Laboratory results taken from patent US9156840B2, “D2 antagonists, methods of synthesis and methods of use” (ALTOS THERAPEUTICS, LLC, priority 2010, dated 2015).
Counter-ions that a name gives are not always drawn.

target: T1, human D2 receptor (Homo sapiens, UniProt P14416); assay: D2 receptor radioligand binding assay (membranes of HEK-293 cells expressing human D2 receptor); settings: radioligand displacement, HEK293 membranes, 37° C. for 120 minutes; read-out: Affinity Score (IC50 values for D2 on a scale of 1 through 5)
T1 construct: expressed in transfected cells; cDNA from Origene clones TC308892 and SC123573
Method: Affinity for the dopamine D2 receptor was tested in vitro, and the following describes the construction of cell lines expressing human D2 receptor, as well as the binding assays themselves.
Establishment of Stable Cell Lines Expressing Either the Cloned Human D2S Receptor or the Cloned Human D2L Receptor.
The human D2 receptor exists in two isoforms: the short form (D2S) and the long form (D2L). The two isoforms are generated from the D2 gene by alternative splicing and the D2L isoform differs from the D2S isoform by the addition of 29 amino acids in the third intracellular loop of its protein structure.
To establish HEK-293 cell lines stably expressing either the human D2S or the human D2L, the human dopamine D2S receptor (Genebank Accession Number NM_016574) and human dopamine D2L receptor (Genebank Accession Number BC021195) were amplified by PCR from Origene cDNA clones TC308892 and SC123573 (respectively) using the following primers: 5-[…]-3 (SEQ ID NO: 1) sense and 5-[…]-3 (SEQ ID NO: 2) antisense. The resulting PCR products were respectively cloned into pENTR-D-TOPO (Invitrogen), sequenced and then transferred into the pCDNA3.2-DEST (Invitrogen) using the LR-clonasc gateway reaction (Invitrogen) and sequenced again to verify the genes sequence.
HEK293 cells were maintained in Eagles Minimum Essential Medium (MEM) supplemented with 0.292 g/L L-glutamine and 10% (v/v) fetal calf serum at 37° C. in a 5% CO2 humidified atmosphere. Cells were grown to 60-80% confluency in 10 cm dishes before transfection. Transfection of the D2S and D2L containing pcDNA3.2-DEST into HEK-293 cells were performed using Lipofectamine 2000 (Invitrogen). Transfected cells were seeded and diluted 2 days after transfection and maintained in culture medium supplemented with 500 μg/mL G418. The HEK-293 cell line expressing the huD2S (R2D2S) and the huD2L (R2D2L) were maintained in culture medium supplemented with 500 μg/mL G418.
D2 Receptor Binding Assays
HEK293 cells were in Eagles Minimum Essential Medium (MEM) supplemented with 10% FBS, 0.292 g/liter L-glutamine, 10^5 units/liter penicillin, 100 mg/liter streptomycin and […] Geneticin at 37° C. in a 5% CO2 humidified atmosphere. Cells were grown to 80-90% confluence and harvested with cell stripper (Cellgro #25-056-CI). Cells were then washed with PBS (2×). Cells were either pelleted and frozen at −80° C. or membranes were prepared immediately.
Cells from pellet were resuspended in homogenization buffer (15 mM Tris*HCl, 2 mM MgCl2*6H2O, 0.3 mM EDTA, 1 mM EGTA pH 7.4 @ 4° C.). Cells were then homogenized using a Polytron (PT 1200) homogenizer at setting 6 for 10 seconds. Crude membranes were pelleted at 39, 412 g for 15 min, at 4° C. (2×) in a Sorval RC6 plus centrifuge. Membranes were finally resuspended in resuspension buffer (50 mM Tris*HCl, 120 mM NaCl, 10 mM MgCl2*6H2O, 1 mM EDTA pH 7.4 @ 4° C.) and sonicated (Fisher Sonic Dismembrator) at setting 5 for 10 seconds.
The radioligand binding assays were conducted in microtiter plates (Costar #3961) with a final volume of 1.0 mL.
The membranes were thawed at room temperature, briefly homogenized using a sonicator, diluted in assay buffer and kept on wet ice until being added to the assay plate. Membranes were diluted to a final target tissue concentration of 10 μg protein per well. The specific binding should be greater than 80% with less than 10% total radioligand bound to minimize ligand depletion errors.
First compound of the invention (50 μL) or assay buffer (50 mM Tris*HCl, 120 mM NaCl, 5 mM MgCl2*6H2O, 1 mM EDTA, 5 mM KCl pH 7.4 @37° C. plus 0.025% BSA), buffer (700 μL) and then membrane (200 μL) were added to the deep well assay plate, which was then shaken for 10 minutes. Finally, radioligand (50 μL) was added.
The assay plates were incubated at 37° C. for 120 minutes.
The assay plate were filtered over 0.3% PEI pretreated glass fiber filtermats (GF/C) using a Packard Filtermate cell harvester. […]

T1 sequence (P14416 whole entry): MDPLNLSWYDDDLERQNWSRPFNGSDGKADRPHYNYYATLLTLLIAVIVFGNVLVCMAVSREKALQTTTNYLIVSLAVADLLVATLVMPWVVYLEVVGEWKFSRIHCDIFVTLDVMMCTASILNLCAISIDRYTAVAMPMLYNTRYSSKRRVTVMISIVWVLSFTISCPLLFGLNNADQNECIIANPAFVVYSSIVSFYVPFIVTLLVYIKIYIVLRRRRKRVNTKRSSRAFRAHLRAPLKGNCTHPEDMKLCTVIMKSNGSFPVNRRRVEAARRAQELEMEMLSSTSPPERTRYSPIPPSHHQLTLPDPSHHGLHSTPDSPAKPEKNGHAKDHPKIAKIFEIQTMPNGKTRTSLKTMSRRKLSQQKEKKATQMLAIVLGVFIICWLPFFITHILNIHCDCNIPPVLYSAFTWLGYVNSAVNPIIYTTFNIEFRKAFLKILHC

Row | Structure (SMILES) | IC50 [µM]
1 | O=C(O)c1ccccc1CN1CN(c2ccc(F)cc2)C2(CCN(CCCN3C(=O)C4(CC4)c4ccccc43)CC2)C1=O [Compound 161, 2-((1-(4-Fluorophenyl)-4-oxo-8-(3-(2′-oxospiro[cyclopropane-1,3′-indoline]-1′-yl)propyl)-1,3,8-triazaspiro[4.5]decan-3-yl)methyl)benzoic acid] | < 0.01
2 | CC1(F)C(=O)N(CCCN2CCC3(CC2)C(=O)N(Cc2ccccc2C(=O)O)CN3c2ccccc2)c2ccccc21 (centres unmarked) [Compound 162, 2-((8-(3-(3-Fluoro-3-methyl-2-oxoindolin-1-yl)propyl)-4-oxo-1-phenyl-1,3,8-triazaspiro[4.5]decan-3-yl)methyl)benzoic acid] | < 0.01
3 | CC1(F)C(=O)N(CCCN2CCC3(CC2)C(=O)N(Cc2ccccc2C(=O)O)CN3c2ccc(F)cc2)c2ccccc21 (centres unmarked) [Compound 163] | < 0.01
4 | CC1(F)C(=O)N(CCCN2CCC3(CC2)C(=O)N(Cc2cccc(C(=O)O)c2)CN3c2ccc(F)cc2)c2ccccc21 (centres unmarked) [Compound 164, 3-((8-(3-(3-Fluoro-3-methyl-2-oxoindolin-1-yl)propyl)-1-(4-fluorophenyl)-4-oxo-1,3,8-triazaspiro[4.5]decan-3-yl)methyl)benzoic acid] | < 0.01
5 | O=C(O)[C@@H](c1ccccc1)N1CN(c2ccccc2)C2(CCN(CCCN3C(=O)Cc4ccccc43)CC2)C1=O [Compound 166, (R)-2-(4-oxo-8-(3-(2-oxoindolin-1-yl)propyl)-1-phenyl-1,3,8-triazaspiro[4.5]decan-3-yl)-2-phenylacetic acid] | < 0.01
6 | O=C(CCCN1CCC2(CC1)C(=O)N([C@@H](C(=O)O)c1ccccc1)CN2c1ccccc1)c1ccccc1 [Compound 167, (R)-2-(4-oxo-8-(4-oxo-4-phenylbutyl)-1-phenyl-1,3,8-triazaspiro[4.5]decan-3-yl)-2-phenylacetic acid] | < 0.01
7 | O=C(CCCN1CCC2(CC1)C(=O)N([C@H](C(=O)O)c1ccccc1)CN2c1ccccc1)c1ccccc1 [Compound 168, (S)-2-(4-oxo-8-(4-oxo-4-phenylbutyl)-1-phenyl-1,3,8-triazaspiro[4.5]decan-3-yl)-2-phenylacetic acid] | < 0.01
8 | O=C(O)[C@H](c1ccccc1)N1CN(c2ccccc2)C2(CCN(CCCN3C(=O)Cc4ccccc43)CC2)C1=O [Compound 170, (S)-2-(4-oxo-8-(3-(2-Oxoindolin-1-yl)propyl)-1-phenyl-1,3,8-triazaspiro[4.5]decan-3-yl)-2-phenylacetic acid] | < 0.01
9 | CC1(C)C(=O)N(CCCN2CCC3(CC2)C(=O)N(Cc2ccc(C(=O)O)cc2)CN3c2ccccc2)c2ccccc21 [Compound 171, 4-((8-(3-(3,3-dimethyl-2-oxoindolin-1-yl)propyl)-4-oxo-1-phenyl-1,3,8-triazaspiro[4.5]decan-3-yl)methyl)benzoic acid, hydrochloride] | < 0.01
10 | O=C(O)c1cccc(CN2CN(c3ccccc3)C3(CCN(CCCC(O)c4ccccc4)CC3)C2=O)c1 (centres unmarked) [Compound 173, 3-((8-(4-hydroxy-4-phenylbutyl)-4-oxo-1-phenyl-1,3,8-triazaspiro[4.5]decan-3-yl)methyl)benzoic acid] | < 0.01
11 | O=C(O)c1cccc(CN2CN(C3CCCCC3)C3(CCN(CCCC(=O)c4ccccc4)CC3)C2=O)c1 [Compound 176, 3-((1-cyclohexyl-4-oxo-8-(4-oxo-4-phenylbutyl)-1,3,8-triazaspiro[4.5]decan-3-yl)methyl)benzoic acid, hydrochloride] | < 0.01
12 | O=C(O)c1cccc(N2CN(c3ccccc3)C3(CCN(CCCC(=O)c4ccccc4)CC3)C2=O)c1 [Compound 177, 3-(4-Cho-8-(4-oxo-4-phenylbutyl)-1-phenyl-1,3,8-triazaspiro[4.5]decan-3-yl)benzoic acid] | < 0.01
13 | COC(=O)c1cccc(N2CN(c3ccccc3)C3(CCN(CCCC(=O)c4ccccc4)CC3)C2=O)c1 [Compound 179, Methyl 3-(4-oxo-8-(4-oxo-4-phenylbutyl)-1-phenyl-1,3,8-triazaspiro[4.5]decan-3-yl)benzoate] | < 0.01
14 | O=C(CCCN1CCC2(CC1)C(=O)N(c1ccccc1C(=O)O)CN2c1ccccc1)c1ccccc1 [Compound 180, 2-(4-oxo-8-(4-oxo-4-phenylbutyl)-1-phenyl-1,3,8-triazaspiro[4.5]decan-3-yl)benzoic acid] | < 0.01
15 | O=C(O)c1ccc(N2CN(c3ccccc3)C3(CCN(CCCC(=O)c4ccccc4)CC3)C2=O)cc1 [Compound 182, 4-(4-Cho-8-(4-oxo-4-phenylbutyl)-1-phenyl-1,3,8-triazaspiro[4.5]decan-3-yl)benzoic acid, hydrochloride] | < 0.01
16 | CS(=O)(=O)Nc1ccc(CN2CN(c3ccccc3)C3(CCN(CCCC(=O)c4ccccc4)CC3)C2=O)cc1 [Compound 186, N-(4-((4-oxo-8-(4-oxo-4-phenylbutyl)-1-phenyl-1,3,8-triazaspiro[4.5]decan-3-yl)methyl)phenyl)methanesulfonamide] | < 0.01
17 | CS(=O)(=O)Nc1cccc(N2CN(c3ccccc3)C3(CCN(CCCC(=O)c4ccc(F)cc4)CC3)C2=O)c1 [Compound 211] | < 0.01
18 | CS(=O)(=O)Nc1cccc(CN2CN(c3ccccc3)C3(CCN(CCCN4C(=O)C5(CC5)c5ccccc54)CC3)C2=O)c1 [Compound 212, N-(3-((4-Oxo-8-(3-(2′-oxospiro[cyclopropane-1,3′-indoline]-1′-yl)propyl)-1-phenyl-1,3,8-triazaspiro[4.5]decan-3-yl)methyl)phenyl)methanesulfonamide] | < 0.01
19 | CS(=O)(=O)Nc1cccc(CN2CN(c3ccccc3)C3(CCN(CCCN4C(=O)Cc5ccccc54)CC3)C2=O)c1 [Compound 213, N-(3-((4-Cho-8-(3-(2-oxoindolin-1-yl)propyl)-1-phenyl-1,3,8-triazaspiro[4.5]decan-3-yl)methyl)phenyl)methanesulfonamide] | < 0.01
20 | CS(=O)(=O)Nc1ccc(N2CN(c3ccccc3)C3(CCN(CCCC(=O)c4ccc(F)cc4)CC3)C2=O)cc1 [Compound 214, N-(4-(8-(4-(4-Fluorophenyl)-4-oxobutyl)-4-oxo-1-phenyl-1,3,8-triazaspiro[4.5]decan-3-yl)phenyl)methanesulfonamide] | < 0.01
21 | CS(=O)(=O)Nc1ccc(N2CN(c3ccccc3)C3(CCN(CCCN4C(=O)Cc5ccccc54)CC3)C2=O)cc1 [Compound 215, N-(4-(4-oxo-8-(3-(2-oxoindolin-1-yl)propyl)-1-phenyl-1,3,8-triazaspiro[4.5]decan-3-yl)phenyl)methanesulfonamide] | < 0.01
22 | CS(=O)(=O)Nc1ccc(N2CN(c3ccccc3)C3(CCN(CCCN4C(=O)C5(CC5)c5ccccc54)CC3)C2=O)cc1 [Compound 216, N-(4-(4-Oxo-8-(3-(2′-oxospiro[cyclopropane-1,3′-indoline]-1′-yl)propyl)-1-phenyl-1,3,8-triazaspiro[4.5]decan-3-yl)phenyl)methanesulfonamide] | < 0.01
23 | CC1(C)C(=O)N(CCCN2CCC3(CC2)C(=O)N(c2ccc(NS(C)(=O)=O)cc2)CN3c2ccccc2)c2ccccc21 [Compound 217, N-(4-(8-(3-(3,3-Dimethyl-2-oxoindolin-1-yl)propyl)-4-oxo-1-phenyl-1,3,8-triazaspiro[4.5]decan-3-yl)phenyl)methanesulfonamide] | < 0.01
